Data on twelve compounds can be found in patent publication US10981926B2 (Janssen Pharmaceutica NV, priority 2016, dated 2021).

The subject of one test is rGABA-gated Cl− channel. In words: GABA-Gated Cl Channel Antagonist Radioligand Binding Assay. Further details: species or system rat. Conditions: 10 μM single point, [35S]-TBPS, cerebral cortex membrane homogenates. An outline of the steps: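 Values give percent inhibition of control specific […] (3 nM) binding at a single 10 μM compound concentration. Cerebral cortex membranes, 120 min, 22° C, phosphate buffer pH 7.4 with 500 mM NaCl; 20 μM picrotoxinin sets nonspecific binding; filtration and scintillation read-out.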

Test [1] addresses T1, wild-type Androgen Receptor (AR-wt) (Homo sapiens (Human), UniProt P10275). In words: LNCaP-AR-wt ANT reporter assay (antagonist mode). The settings on record: for IC50 / LNCaP-AR-wt ANT pIC50: antagonist mode, pIC50 = −Log10(IC50 in Molar); for IC50: read-out: LNCaP-AR-wt ANT pIC50 (converted); for Emax: read-out: LNCaP-AR-wt ANT MAX % Inh. Type of test: cell-based.
The target of test [2] is T2, F876L mutant Androgen Receptor (AR-F876L) (Homo sapiens (Human), UniProt P10275, F877L). In words: LNCaP-AR-F876L ANT reporter assay (antagonist mode). The settings on record: for IC50: read-out: LNCaP-AR-F876L ANT pIC50 (converted); for Emax: read-out: LNCaP-AR-F876L ANT MAX % Inh. Type of test: cell-based.
T2 sequence (P10275 whole entry F877L): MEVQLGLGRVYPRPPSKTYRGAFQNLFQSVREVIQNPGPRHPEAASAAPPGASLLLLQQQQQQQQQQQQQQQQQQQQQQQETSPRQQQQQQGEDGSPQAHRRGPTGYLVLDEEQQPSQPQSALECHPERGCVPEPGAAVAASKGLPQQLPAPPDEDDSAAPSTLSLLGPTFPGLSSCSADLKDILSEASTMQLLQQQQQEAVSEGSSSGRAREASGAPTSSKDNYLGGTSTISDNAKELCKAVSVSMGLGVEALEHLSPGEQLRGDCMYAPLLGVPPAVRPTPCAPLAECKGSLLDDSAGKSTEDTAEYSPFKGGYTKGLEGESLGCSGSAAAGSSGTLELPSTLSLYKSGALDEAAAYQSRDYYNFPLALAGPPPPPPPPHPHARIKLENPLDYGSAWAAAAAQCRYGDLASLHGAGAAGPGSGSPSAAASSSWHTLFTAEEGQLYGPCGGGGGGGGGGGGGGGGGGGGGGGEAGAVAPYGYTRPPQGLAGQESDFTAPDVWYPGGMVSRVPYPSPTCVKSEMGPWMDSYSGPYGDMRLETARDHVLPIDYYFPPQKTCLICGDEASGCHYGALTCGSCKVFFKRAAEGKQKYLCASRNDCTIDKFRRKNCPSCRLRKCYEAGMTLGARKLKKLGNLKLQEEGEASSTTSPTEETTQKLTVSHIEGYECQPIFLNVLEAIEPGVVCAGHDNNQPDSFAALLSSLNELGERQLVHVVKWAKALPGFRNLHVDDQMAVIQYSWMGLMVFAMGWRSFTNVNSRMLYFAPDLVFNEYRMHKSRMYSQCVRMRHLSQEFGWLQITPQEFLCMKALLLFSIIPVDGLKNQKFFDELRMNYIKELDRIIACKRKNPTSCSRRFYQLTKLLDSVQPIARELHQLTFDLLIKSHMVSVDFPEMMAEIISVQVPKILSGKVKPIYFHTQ
The target of test [3] is T2, F876L mutant Androgen Receptor (AR-F876L). Kind of test: LNCaP-AR-F876L AG reporter assay (agonist mode). The class given is cell-based. Conditions: for EC50 / LNCaP-AR-F876L AG pEC50: agonist mode, pEC50 = −Log10(EC50 in Molar); for EC50: read-out: LNCaP-AR-F876L AG pEC50 (converted); for Emax: read-out: LNCaP-AR-F876L AG MAX % Stim.
Test [4] addresses T1, wild-type Androgen Receptor (AR-wt). Kind of test: LNCaP-AR-wt AG reporter assay (agonist mode). The class given is cell-based. The settings on record: for EC50 / LNCaP-AR-wt AG pEC50: agonist mode, pEC50 = −Log10(EC50 in Molar); for EC50: read-out: LNCaP-AR-wt AG pEC50 (converted); for Emax: read-out: LNCaP-AR-wt AG MAX % Stim.
[5] abbreviates: maximum % inhibition of R1881 control response over the tested concentration range.
[6] abbreviates: antagonist mode, pIC50 = −Log10(IC50 in Molar).
[7] abbreviates: maximum % stimulation (agonist response) over the tested concentration range.

T1 sequence (P10275 whole entry): as the sequence (P10275 whole entry F877L) above, with L877F counted along it

Regarding `C=CCN1CCC(Oc2ccc(N3C(=S)N(c4cnc(C#N)c(C(F)(F)F)c4)C(=O)C34CCC4)cn2)CC1` [Cpd 88, 5-[8-[6-[(1-allyl-4-piperidyl)oxy]-3-pyridyl]-5-oxo-7-thioxo-6,8-diazaspiro[3.4]octan-6-yl]-3-(trifluoromethyl)pyridine-2-carbonitrile], the “rGABA-gated Cl− channel % inh @10 μM” value in the test on rGABA-gated Cl− channel was found to be 49.7%. Moreover, the figures for the IC50 in test [1] and in test [2] (setting [6]) were 74.1 nM and 33.1 nM, respectively. The Emax in test [1] (setting [5]) turned out to be 102%; in test [2] (setting [5]) it was 99.5%; in test [3] (setting [7]), 0.4%; in test [4] (setting [7]), 0.4%. The EC50 in test [3] and in test [4] was above 15100 nM each time.
For `Cc1cc(N2C(=O)C3(CCC3)N(c3ccc(OC4CCN(CC#N)CC4)nc3)C2=S)cnc1C#N` [Cpd 90, 5-[8-[6-[[1-(cyanomethyl)-4-piperidyl]oxy]-3-pyridyl]-5-oxo-7-thioxo-6,8-diazaspiro[3.4]octan-6-yl]-3-methyl-pyridine-2-carbonitrile], in the test with rGABA-gated Cl− channel, the “rGABA-gated Cl− channel % inh @10 μM” value is listed as 20.8%. The IC50 was 89.1 nM in test [1] and 67.6 nM in test [2] (setting [6]). The Emax is 99.7% in test [1] (setting [5]), 99.3% in test [2] (setting [5]), 0.9% in test [3] (setting [7]) and 0.6% in test [4] (setting [7]). Further, the EC50 in test [3] and in test [4] was above 15100 nM in each case.
Turning to `CC1COC(COc2ccc(N3C(=S)N(c4cnc(C#N)c(C(F)(F)F)c4)C(=O)C34CCC4)cc2)CN1` [Cpd 91, (R,S),(R,S)-5-[8-[4-[(5-methylmorpholin-2-yl)methoxy]phenyl]-5-oxo-7-thioxo-6,8-diazaspiro[3.4]octan-6-yl]-3-(trifluoromethyl)pyridine-2-carbonitrile], the “rGABA-gated Cl− channel % inh @10 μM” value with rGABA-gated Cl− channel is on record as 36.7%. In test [1], the “LNCaP-AR-wt ANT pIC50” value is 7.33. Further, the “LNCaP-AR-wt ANT MAX % Inh” value in test [1] (setting [5]) is listed as 98.3%. Also, the “LNCaP-AR-F876L ANT pIC50” value in test [2] (setting [6]) is reported as 7.49. Moreover, the “LNCaP-AR-F876L ANT MAX % Inh” value in test [2] (setting [5]) was 98.6%. Moreover, the “LNCaP-AR-F876L AG pEC50” value in test [3] is reported as below 4.82. Further, in test [3] (setting [7]), the “LNCaP-AR-F876L AG MAX % Stim” value was 0.4%. The “LNCaP-AR-wt AG pEC50” value in test [4] is below 4.82. Moreover, in test [4] (setting [7]), the “LNCaP-AR-wt AG MAX % Stim” value worked out at 0.6%.
On to `N#Cc1ncc(N2C(=O)C3(CCC3)N(c3ccc(OC4CC5CCC(N5)C4F)cc3)C2=S)cc1C(F)(F)F` (stereo not drawn) [Cpd 93, 5-[8-[4-[(4-fluoro-8-azabicyclo[3.2.1]octan-3-yl)oxy]phenyl]-5-oxo-7-thioxo-6,8-diazaspiro[3.4]octan-6-yl]-3-(trifluoromethyl)pyridine-2-carbonitrile], for which, in the test with rGABA-gated Cl− channel, the “rGABA-gated Cl− channel % inh @10 μM” value stood at 74.4%. In addition, in test [1], the “LNCaP-AR-wt ANT pIC50” value stood at 6.77. Further, the Emax in test [1] (setting [5]) turned out to be 105%; in test [2] (setting [5]), 102%; in test [3] (setting [7]) it was 0.2%; in test [4] (setting [7]) it was 0.5%. Also, the IC50 in test [2] (setting [6]) was 45.7 nM. In addition, the “LNCaP-AR-F876L AG pEC50” value in test [3] is below 4.82. In test [4], the “LNCaP-AR-wt AG pEC50” value is reported as below 4.82.
Regarding `CN1C2CCC1C(F)C(Oc1ccc(N3C(=S)N(c4cnc(C#N)c(C(F)(F)F)c4)C(=O)C34CCC4)cc1)C2` (stereo not drawn) [Cpd 94, 5-[8-[4-[(4-fluoro-8-methyl-8-azabicyclo[3.2.1]octan-3-yl)oxy]phenyl]-5-oxo-7-thioxo-6,8-diazaspiro[3.4]octan-6-yl]-3-(trifluoromethyl)pyridine-2-carbonitrile], in the test on rGABA-gated Cl− channel, the “rGABA-gated Cl− channel % inh @10 μM” value is recorded as 91.0%. The “LNCaP-AR-wt ANT pIC50” value in test [1] is listed as 6.78. The Emax in test [1] (setting [5]) was 101%; in test [2] (setting [5]) it was 101%; in test [3] (setting [7]) it was 0.2%; in test [4] (setting [7]) it was 0.8%. Moreover, the IC50 in test [2] (setting [6]) is 70.8 nM. Besides, in test [3], the “LNCaP-AR-F876L AG pEC50” value is recorded as below 4.82. In addition, in test [4], the “LNCaP-AR-wt AG pEC50” value is on record as below 4.82.
As for `CN1CC2(CC(Oc3ccc(N4C(=S)N(c5cnc(C#N)c(C(F)(F)F)c5)C(=O)C45CCC5)cc3)C2)C1` [Cpd 97, 5-[8-[4-[(6-methyl-6-azaspiro[3.3]heptan-2-yl)oxy]phenyl]-5-oxo-7-thioxo-6,8-diazaspiro[3.4]octan-6-yl]-3-(trifluoromethyl)pyridine-2-carbonitrile], the “rGABA-gated Cl− channel % inh @10 μM” value with rGABA-gated Cl− channel came out at 4.0%. The IC50 in test [1] was 55 nM; in test [2] (setting [6]), 25.1 nM. In addition, the Emax in test [1] (setting [5]) turned out to be 102%; in test [2] (setting [5]) it was 99.9%; in test [3] (setting [7]), 0.2%; in test [4] (setting [7]), 0%. Also, the EC50 in test [3] and in test [4] was above 15100 nM each time.
As for `COCCN1CCC(Oc2ccc(N3C(=S)N(c4cnc(C#N)c(C)c4)C(=O)C34CCC4)cn2)CC1` [Cpd 98, 5-[8-[6-[[1-(2-methoxyethyl)-4-piperidyl]oxy]-3-pyridyl]-5-oxo-7-thioxo-6,8-diazaspiro[3.4]octan-6-yl]-3-methyl-pyridine-2-carbonitrile], the “rGABA-gated Cl− channel % inh @10 μM” value in the test with rGABA-gated Cl− channel is listed as −7.6%. Further, the IC50 in test [1] is 46.8 nM; in test [2] (setting [6]), 20.9 nM. Moreover, the Emax in test [1] (setting [5]) came to 101%; in test [2] (setting [5]), 100%; in test [3] (setting [7]), 0.1%; in test [4] (setting [7]), 0.3%. The EC50 in test [3] and in test [4] was above 15100 nM in each case.
Consider `Cc1cc(N2C(=O)C3(CCC3)N(c3ccc(OC4CCN(CCO)CC4)nc3)C2=S)cnc1C#N` [Cpd 100, 5-[8-[6-[[1-(2-hydroxyethyl)-4-piperidyl]oxy]-3-pyridyl]-5-oxo-7-thioxo-6,8-diazaspiro[3.4]octan-6-yl]-3-methyl-pyridine-2-carbonitrile], for which the “rGABA-gated Cl− channel % inh @10 μM” value in the test with rGABA-gated Cl− channel is 2.3%. For the same compound, the IC50 was 162 nM in test [1] and 58.9 nM in test [2] (setting [6]). Besides, the Emax stood at 100% in test [1] (setting [5]), 98.9% in test [2] (setting [5]), 0.5% in test [3] (setting [7]) and 0.1% in test [4] (setting [7]). In addition, the EC50 in test [3] and in test [4] was above 15100 nM in each case.
Consider `C#CCN1CCC(Oc2ccc(N3C(=S)N(c4cnc(C#N)c(C(F)(F)F)c4)C(=O)C34CCC4)cn2)CC1` [Cpd 104, 5-[5-oxo-8-[6-[(1-prop-2-ynyl-4-piperidyl)oxy]-3-pyridyl]-7-thioxo-6,8-diazaspiro[3.4]octan-6-yl]-3-(trifluoromethyl)pyridine-2-carbonitrile], for which the “rGABA-gated Cl− channel % inh @10 μM” value in the test with rGABA-gated Cl− channel turned out to be 98.9%. Besides, the IC50 was 69.2 nM in test [1] and 41.7 nM in test [2] (setting [6]). Further, the Emax in test [1] (setting [5]) was determined as 101%; in test [2] (setting [5]), 99.6%; in test [3] (setting [7]), 0.7%; in test [4] (setting [7]) it was 0.5%. Moreover, the EC50 in test [3] and in test [4] was above 15100 nM each time.
Take `N#Cc1ncc(N2C(=O)C3(CCC3)N(c3ccc(OCCN4CC5(COC5)C4)cc3)C2=S)cc1C(F)(F)F` [Cpd 105, 5-[8-[4-[2-(6-oxa-2-azaspiro[3.3]heptan-2-yl)ethoxy]phenyl]-5-oxo-7-thioxo-6,8-diazaspiro[3.4]octan-6-yl]-3-(trifluoromethyl)pyridine-2-carbonitrile]: the “rGABA-gated Cl− channel % inh @10 μM” value in the test on rGABA-gated Cl− channel was 23.9%. Besides, the IC50 in test [1] was 123 nM; in test [2] (setting [6]), 66.1 nM. The Emax in test [1] (setting [5]) was determined as 100%; in test [2] (setting [5]), 97.6%; in test [3] (setting [7]), 0.8%; in test [4] (setting [7]) it was 0.1%. Also, the EC50 in test [3] and in test [4] was above 15100 nM each time.
In the case of `C#CCN1CCC(Oc2ccc(N3C(=S)N(c4cnc(C#N)c(C(F)(F)F)c4)C(=O)C34CCC4)cc2)CC1` [Cpd 107, 5-[5-oxo-8-[4-[(1-prop-2-ynyl-4-piperidyl)oxy]phenyl]-7-thioxo-6,8-diazaspiro[3.4]octan-6-yl]-3-(trifluoromethyl)pyridine-2-carbonitrile], the “rGABA-gated Cl− channel % inh @10 μM” value in the test on rGABA-gated Cl− channel was found to be 87.2%. The figures for the IC50 in test [1] and in test [2] (setting [6]) were 22.9 nM and 24.5 nM, respectively. For the same compound, the Emax in test [1] (setting [5]) was 101%; in test [2] (setting [5]) it was 97.5%; in test [3] (setting [7]) it was 1.9%; in test [4] (setting [7]), 0.5%. The EC50 in test [3] and in test [4] was above 15100 nM throughout.
`N#Cc1ncc(N2C(=O)C3(CCC3)N(c3ccc4c(c3)CCNC4)C2=S)cc1C(F)(F)F` [Cpd 108, 5-(8-oxo-5-(1,2,3,4-tetrahydroisoquinolin-6-yl)-6-thioxo-5,7-diazaspiro[3.4]octan-7-yl)-3-(trifluoromethyl)picolinonitrile]: the “rGABA-gated Cl− channel % inh @10 μM” value with rGABA-gated Cl− channel came out at 17.1%. The IC50 in test [1] is 1660 nM; in test [2] (setting [6]) it was 1020 nM. Moreover, the Emax in test [1] (setting [5]) was determined as 98.3%; in test [2] (setting [5]), 94.8%; in test [3] (setting [7]), 0.2%; in test [4] (setting [7]), 0.7%. Further, the EC50 in test [3] and in test [4] was above 15100 nM in each case.
